The IC50 is the concentration that inhibits the measured activity by half. Read a low IC50 as higher potency.

This test has as its target DNA damage-binding protein 1/Protein cereblon (Homo sapiens, UniProt Q96SW2). The experiment in a line: Not found.
Source text: Not found

Sequence of DNA damage-binding protein 1/Protein cereblon (Q16531 whole entry): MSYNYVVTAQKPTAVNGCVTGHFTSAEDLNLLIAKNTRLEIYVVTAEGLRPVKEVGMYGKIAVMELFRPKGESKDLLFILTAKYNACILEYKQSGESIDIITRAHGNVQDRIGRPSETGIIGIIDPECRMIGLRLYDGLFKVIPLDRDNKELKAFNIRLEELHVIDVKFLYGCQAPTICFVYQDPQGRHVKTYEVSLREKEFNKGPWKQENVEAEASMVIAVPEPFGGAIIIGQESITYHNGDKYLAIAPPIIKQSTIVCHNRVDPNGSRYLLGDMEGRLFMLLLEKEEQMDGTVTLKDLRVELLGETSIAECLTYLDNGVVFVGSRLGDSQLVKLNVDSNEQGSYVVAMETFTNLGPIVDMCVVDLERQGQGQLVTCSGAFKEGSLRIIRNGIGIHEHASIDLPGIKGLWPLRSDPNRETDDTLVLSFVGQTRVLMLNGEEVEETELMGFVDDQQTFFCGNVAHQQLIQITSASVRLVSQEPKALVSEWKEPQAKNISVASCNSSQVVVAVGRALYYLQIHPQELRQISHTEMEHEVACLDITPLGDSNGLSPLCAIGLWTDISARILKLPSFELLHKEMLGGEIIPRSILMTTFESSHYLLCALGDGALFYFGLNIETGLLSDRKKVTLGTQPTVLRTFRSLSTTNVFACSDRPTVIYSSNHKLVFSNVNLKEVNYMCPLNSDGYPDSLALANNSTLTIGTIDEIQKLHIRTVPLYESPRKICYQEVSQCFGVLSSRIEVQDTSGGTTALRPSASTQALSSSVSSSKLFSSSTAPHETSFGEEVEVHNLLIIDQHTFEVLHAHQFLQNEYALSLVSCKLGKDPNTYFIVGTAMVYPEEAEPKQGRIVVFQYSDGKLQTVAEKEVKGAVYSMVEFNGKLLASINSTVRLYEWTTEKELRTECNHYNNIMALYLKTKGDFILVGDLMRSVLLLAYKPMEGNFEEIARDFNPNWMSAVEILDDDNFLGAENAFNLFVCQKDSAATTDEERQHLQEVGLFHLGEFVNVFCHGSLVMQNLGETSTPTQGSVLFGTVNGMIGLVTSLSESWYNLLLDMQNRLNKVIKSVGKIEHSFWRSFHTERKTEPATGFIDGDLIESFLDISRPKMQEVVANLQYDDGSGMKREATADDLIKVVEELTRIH
Sequence of DNA damage-binding protein 1/Protein cereblon (Q96SW2 whole entry): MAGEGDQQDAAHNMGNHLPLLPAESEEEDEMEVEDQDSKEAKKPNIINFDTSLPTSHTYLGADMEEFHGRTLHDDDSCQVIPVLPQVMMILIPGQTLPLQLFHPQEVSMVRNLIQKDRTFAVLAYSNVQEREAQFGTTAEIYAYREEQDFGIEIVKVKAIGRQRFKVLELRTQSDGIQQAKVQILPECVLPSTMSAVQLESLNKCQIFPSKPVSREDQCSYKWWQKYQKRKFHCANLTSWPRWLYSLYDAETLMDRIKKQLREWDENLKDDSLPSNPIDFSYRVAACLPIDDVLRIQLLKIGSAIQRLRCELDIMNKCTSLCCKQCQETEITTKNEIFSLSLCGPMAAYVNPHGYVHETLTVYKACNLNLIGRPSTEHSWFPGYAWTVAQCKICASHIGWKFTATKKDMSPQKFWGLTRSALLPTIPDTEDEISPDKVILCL

Turning to `Cn1ncc2ccc(CN3CCC4(COc5c4ccc4c5CN([C@H]5CCC(=O)NC5=O)C4=O)C(F)(F)C3)cc21` (some centres not stated) [US20250215012, Example B34], the IC50 lay within 0.1 to 0.5 µM.

As for `O=C1CC[C@H](N2Cc3c(ccc4c3OCC43CCN(Cc4ccc5cn[nH]c5c4)CC3(F)F)C2=O)C(=O)N1` (some centres not stated) [US20250215012, Example B33], the half-inhibitory concentration (IC50) lay in the range of 0.1 to 0.5 µM.
